These results are taken from ChEMBL document CHEMBL5465560, “Selectivity Literature for EUbOPEN Chemogenomic Library” (2024).

Test [1] concerns the target Macrophage-stimulating protein receptor (Homo sapiens, UniProt Q04912). Kind of test: Selectivity interaction (ProQinase) EUB0000171b MST1R.
Test [2] concerns the target Interferon-induced, double-stranded RNA-activated protein kinase (Homo sapiens) (UniProt P19525). Particulars: at 10 µM.
Test [3] has as its target T1, Dual specificity mitogen-activated protein kinase kinase 5 (Homo sapiens) (UniProt Q13163).
T1 sequence (whole entry): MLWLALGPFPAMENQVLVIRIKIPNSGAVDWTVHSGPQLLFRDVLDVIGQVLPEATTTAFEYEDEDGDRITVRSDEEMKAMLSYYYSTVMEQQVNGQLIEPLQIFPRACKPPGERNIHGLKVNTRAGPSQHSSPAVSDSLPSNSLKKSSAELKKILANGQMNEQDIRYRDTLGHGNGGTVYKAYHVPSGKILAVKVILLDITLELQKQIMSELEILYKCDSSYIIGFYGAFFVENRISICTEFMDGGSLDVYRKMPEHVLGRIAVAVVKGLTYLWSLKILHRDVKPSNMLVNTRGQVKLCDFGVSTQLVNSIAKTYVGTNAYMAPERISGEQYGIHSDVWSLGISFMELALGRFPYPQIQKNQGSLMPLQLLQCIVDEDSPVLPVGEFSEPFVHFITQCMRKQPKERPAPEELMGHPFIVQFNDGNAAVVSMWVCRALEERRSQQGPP
Description: Selectivity interaction (KinomeScan (DiscoverX)) EUB0000092b MAP2K5. The following applies: at 10 µM.

In test [4] the test system is Epidermal growth factor receptor (Homo sapiens), P00533 [T790M]. Description: (§1) Selectivity interaction (KinomeScan (DiscoverX)) EUB0000666a EGFR. The following applies: at 10 µM.
The subject of test [5] is Epidermal growth factor receptor (Homo sapiens), P00533 [L858R]. The test is described as §1. Particulars: at 10 µM.
Test [6] relates to Epidermal growth factor receptor (Homo sapiens), P00533 [G719C]. The test is described as §1. Particulars: at 10 µM.
Test [7] concerns Epidermal growth factor receptor (Homo sapiens), P00533 [UNDEFINED MUTATION]. The test is described as §1. The following applies: at 10 µM.
Test [8] relates to Epidermal growth factor receptor (Homo sapiens), P00533 [G719S]. The description is as §1. Particulars: at 10 µM.
The subject of test [9] is Epidermal growth factor receptor (Homo sapiens), P00533 [L858R,T790M]. The description is as §1. The following applies: at 10 µM.
The target in test [10] is Serine/threonine-protein kinase 35 (Homo sapiens) (UniProt Q8TDR2). Description: Selectivity interaction (KinomeScan (DiscoverX)) EUB0000607a STK35. The following applies: at 10 µM.
The target in test [11] is T2, Scaffold protein ILK (Homo sapiens) (UniProt Q13418).
T2 sequence (whole entry): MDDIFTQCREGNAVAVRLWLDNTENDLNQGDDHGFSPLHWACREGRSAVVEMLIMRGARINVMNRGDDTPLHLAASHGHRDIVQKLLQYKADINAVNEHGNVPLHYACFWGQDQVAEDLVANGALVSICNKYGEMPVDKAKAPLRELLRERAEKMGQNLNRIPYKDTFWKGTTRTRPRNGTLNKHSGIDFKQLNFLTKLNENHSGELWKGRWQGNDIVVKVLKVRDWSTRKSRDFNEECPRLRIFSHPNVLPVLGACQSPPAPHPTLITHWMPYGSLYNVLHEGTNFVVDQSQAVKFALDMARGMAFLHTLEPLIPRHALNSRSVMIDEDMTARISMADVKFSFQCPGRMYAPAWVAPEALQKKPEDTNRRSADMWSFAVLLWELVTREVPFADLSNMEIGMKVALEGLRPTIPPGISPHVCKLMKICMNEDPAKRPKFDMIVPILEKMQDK
Kind of test: Selectivity interaction (ActivX KiNativ screen (kinase selectivity in THP-1 cell lysates)) EUB0000639a ILK. It is filed as subcellular. The following applies: lysate.

The target of test [12] is T3, Serine/threonine-protein kinase LATS1 (Homo sapiens) (UniProt O95835).
T3 sequence (whole entry): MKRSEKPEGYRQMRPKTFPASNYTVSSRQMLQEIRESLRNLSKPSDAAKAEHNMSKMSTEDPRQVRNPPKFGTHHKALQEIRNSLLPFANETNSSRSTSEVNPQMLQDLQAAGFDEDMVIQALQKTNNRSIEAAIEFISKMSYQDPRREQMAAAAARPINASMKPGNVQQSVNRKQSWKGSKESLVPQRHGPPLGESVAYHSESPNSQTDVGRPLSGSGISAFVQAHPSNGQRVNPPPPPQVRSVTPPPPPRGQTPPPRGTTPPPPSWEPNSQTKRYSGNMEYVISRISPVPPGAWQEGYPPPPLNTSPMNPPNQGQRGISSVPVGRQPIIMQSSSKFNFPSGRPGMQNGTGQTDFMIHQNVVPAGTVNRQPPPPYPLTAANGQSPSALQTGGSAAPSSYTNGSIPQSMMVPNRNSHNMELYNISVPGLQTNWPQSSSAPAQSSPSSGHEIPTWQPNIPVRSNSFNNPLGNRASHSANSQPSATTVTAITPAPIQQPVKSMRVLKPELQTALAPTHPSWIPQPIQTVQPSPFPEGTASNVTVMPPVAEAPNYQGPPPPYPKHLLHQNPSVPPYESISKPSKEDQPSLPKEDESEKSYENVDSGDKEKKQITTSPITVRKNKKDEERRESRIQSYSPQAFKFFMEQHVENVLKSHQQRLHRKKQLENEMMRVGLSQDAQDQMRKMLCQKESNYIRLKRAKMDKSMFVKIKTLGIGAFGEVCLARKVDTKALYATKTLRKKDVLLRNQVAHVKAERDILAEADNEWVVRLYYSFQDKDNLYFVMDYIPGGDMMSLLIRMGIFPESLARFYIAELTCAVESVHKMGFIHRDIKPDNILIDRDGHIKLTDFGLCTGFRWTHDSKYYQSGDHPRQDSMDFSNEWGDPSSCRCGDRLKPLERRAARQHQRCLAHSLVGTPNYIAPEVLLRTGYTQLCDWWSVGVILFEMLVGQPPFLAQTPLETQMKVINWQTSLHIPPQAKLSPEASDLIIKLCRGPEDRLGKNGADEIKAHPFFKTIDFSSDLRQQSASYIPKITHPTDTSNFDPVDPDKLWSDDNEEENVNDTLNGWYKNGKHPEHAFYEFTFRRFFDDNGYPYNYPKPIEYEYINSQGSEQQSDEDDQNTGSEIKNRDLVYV
Description: Selectivity interaction (ActivX KiNativ screen (kinase selectivity in THP-1 cell lysates)) EUB0000639a LATS1. It is filed as subcellular. Particulars: lysate, at 0.01 µM.

Test [13] deals with Dual specificity mitogen-activated protein kinase kinase 2 (Homo sapiens) (UniProt P36507). Kind of test: Selectivity interaction (Kinase panel (Invitrogen)) EUB0000639a MAP2K2. Particulars: at 200 nM.
Test [14] has as its target Serine/threonine-protein kinase tousled-like 2 (Homo sapiens) (UniProt Q86UE8). Description: Selectivity interaction (KinomeScan (DiscoverX)) EUB0001619a TLK2. Particulars: at 1 µM.
The target in test [15] is Dual specificity tyrosine-phosphorylation-regulated kinase 1A (Homo sapiens, UniProt Q13627). Description: Selectivity interaction (KinomeScan (DiscoverX)) EUB0001619a DYRK1A. Particulars: at 1 µM.

Chain of Macrophage-stimulating protein receptor (Q04912 25-304 limits assumed): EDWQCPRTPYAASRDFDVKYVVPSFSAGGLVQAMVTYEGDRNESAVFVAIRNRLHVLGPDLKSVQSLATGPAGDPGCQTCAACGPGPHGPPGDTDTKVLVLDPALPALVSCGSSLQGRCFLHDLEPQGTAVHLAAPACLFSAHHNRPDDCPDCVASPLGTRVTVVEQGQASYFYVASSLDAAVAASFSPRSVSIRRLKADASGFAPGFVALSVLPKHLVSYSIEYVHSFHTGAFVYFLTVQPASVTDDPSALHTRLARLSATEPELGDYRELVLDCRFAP
Chain of Macrophage-stimulating protein receptor (Q04912 310-1400 limits assumed): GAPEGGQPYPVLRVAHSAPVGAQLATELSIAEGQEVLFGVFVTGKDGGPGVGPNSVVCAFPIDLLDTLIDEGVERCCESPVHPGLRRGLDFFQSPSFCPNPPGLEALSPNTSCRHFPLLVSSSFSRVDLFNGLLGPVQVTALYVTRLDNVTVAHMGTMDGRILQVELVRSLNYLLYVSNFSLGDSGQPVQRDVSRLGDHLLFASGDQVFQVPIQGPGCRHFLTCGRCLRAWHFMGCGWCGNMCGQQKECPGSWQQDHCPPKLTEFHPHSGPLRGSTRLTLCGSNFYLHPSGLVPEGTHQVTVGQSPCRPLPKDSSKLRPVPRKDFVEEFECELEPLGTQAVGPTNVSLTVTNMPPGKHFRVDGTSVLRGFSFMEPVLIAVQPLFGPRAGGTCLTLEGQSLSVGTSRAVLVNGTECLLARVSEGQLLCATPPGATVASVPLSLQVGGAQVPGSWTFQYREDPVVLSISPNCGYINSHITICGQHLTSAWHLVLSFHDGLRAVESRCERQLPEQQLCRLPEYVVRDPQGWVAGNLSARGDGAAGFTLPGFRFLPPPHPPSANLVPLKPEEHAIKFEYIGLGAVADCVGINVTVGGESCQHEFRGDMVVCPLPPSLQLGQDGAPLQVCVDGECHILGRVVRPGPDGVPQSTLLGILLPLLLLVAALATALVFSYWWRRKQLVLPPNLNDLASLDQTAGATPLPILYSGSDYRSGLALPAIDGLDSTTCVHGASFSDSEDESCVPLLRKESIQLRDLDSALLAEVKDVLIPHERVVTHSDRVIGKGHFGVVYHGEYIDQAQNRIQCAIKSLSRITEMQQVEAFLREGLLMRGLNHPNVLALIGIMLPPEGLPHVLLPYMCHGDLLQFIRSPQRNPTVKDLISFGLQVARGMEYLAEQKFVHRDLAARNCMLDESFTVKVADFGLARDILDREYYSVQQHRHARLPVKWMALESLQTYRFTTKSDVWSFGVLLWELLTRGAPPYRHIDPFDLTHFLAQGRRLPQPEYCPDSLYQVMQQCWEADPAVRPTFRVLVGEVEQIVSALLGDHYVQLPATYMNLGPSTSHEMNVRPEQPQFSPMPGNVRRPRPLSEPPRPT
Chain of Serine/threonine-protein kinase tousled-like 2 (Homo sapiens) (Q86UE8 whole entry, looked up): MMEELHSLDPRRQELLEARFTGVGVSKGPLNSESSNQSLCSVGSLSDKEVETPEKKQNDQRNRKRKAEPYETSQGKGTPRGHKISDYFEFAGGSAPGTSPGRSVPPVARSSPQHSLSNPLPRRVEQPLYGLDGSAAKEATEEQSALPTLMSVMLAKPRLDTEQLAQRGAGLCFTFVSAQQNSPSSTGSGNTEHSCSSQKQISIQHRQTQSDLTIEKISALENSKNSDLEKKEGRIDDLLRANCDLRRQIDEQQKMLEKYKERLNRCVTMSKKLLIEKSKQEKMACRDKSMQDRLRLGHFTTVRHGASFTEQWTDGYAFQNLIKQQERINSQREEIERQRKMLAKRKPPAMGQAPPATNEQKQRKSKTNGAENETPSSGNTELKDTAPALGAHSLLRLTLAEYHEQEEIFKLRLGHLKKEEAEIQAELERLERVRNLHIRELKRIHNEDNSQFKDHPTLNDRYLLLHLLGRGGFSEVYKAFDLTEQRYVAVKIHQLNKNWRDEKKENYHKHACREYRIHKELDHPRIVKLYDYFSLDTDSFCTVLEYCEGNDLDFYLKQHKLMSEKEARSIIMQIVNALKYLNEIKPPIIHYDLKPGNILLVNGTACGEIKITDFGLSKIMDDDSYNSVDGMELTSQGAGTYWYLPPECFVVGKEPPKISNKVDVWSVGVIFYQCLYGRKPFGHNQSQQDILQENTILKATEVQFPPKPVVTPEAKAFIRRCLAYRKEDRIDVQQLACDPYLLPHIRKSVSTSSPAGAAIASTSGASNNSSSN
Chain of Epidermal growth factor receptor (Homo sapiens), P00533 [L858R] (P00533 whole entry L858R): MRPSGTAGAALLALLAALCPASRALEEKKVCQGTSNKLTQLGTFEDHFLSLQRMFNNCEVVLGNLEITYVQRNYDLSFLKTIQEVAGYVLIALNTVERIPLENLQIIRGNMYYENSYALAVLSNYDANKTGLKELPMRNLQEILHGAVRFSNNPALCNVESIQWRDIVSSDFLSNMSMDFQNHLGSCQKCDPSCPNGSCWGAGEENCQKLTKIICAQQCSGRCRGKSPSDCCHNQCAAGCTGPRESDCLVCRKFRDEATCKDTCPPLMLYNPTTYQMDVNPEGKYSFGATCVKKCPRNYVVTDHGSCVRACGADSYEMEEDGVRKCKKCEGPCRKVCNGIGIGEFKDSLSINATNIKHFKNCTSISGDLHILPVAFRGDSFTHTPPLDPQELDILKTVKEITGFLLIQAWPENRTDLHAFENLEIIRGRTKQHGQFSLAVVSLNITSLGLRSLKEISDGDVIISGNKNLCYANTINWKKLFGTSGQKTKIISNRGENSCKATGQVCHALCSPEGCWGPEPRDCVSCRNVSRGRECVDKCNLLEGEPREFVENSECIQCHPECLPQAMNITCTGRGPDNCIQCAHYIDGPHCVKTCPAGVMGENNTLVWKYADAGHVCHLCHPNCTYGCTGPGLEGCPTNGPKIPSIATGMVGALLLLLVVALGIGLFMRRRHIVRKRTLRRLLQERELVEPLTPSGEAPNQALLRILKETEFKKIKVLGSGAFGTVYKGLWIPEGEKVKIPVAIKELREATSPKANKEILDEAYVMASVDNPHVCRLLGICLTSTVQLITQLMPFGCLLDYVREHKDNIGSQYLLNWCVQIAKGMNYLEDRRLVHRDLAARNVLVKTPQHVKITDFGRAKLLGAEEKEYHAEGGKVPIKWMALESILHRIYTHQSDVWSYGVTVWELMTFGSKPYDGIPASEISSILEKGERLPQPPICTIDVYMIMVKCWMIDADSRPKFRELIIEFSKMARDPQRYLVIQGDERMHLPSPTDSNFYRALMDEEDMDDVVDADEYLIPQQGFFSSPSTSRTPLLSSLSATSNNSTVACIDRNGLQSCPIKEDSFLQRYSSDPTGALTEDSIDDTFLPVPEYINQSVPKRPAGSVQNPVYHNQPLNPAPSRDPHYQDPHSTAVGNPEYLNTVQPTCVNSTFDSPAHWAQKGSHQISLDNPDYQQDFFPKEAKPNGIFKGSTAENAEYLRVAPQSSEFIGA
Chain of Interferon-induced, double-stranded RNA-activated protein kinase (Homo sapiens) (P19525 whole entry): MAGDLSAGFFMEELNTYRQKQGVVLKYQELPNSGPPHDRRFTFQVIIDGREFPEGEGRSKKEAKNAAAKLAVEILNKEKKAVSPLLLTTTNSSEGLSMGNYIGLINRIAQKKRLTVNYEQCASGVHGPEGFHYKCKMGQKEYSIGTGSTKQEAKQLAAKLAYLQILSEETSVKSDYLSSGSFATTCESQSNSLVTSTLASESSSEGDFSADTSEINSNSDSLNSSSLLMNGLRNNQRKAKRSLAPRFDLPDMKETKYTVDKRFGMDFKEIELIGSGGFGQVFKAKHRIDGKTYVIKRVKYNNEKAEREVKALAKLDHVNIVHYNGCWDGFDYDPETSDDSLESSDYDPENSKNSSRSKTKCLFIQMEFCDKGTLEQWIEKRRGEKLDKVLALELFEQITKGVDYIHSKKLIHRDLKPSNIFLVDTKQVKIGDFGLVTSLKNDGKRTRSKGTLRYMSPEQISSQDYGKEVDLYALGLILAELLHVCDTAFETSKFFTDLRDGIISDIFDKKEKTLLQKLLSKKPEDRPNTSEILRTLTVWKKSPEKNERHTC
Chain of Serine/threonine-protein kinase 35 (Homo sapiens) (Q8TDR2 whole entry): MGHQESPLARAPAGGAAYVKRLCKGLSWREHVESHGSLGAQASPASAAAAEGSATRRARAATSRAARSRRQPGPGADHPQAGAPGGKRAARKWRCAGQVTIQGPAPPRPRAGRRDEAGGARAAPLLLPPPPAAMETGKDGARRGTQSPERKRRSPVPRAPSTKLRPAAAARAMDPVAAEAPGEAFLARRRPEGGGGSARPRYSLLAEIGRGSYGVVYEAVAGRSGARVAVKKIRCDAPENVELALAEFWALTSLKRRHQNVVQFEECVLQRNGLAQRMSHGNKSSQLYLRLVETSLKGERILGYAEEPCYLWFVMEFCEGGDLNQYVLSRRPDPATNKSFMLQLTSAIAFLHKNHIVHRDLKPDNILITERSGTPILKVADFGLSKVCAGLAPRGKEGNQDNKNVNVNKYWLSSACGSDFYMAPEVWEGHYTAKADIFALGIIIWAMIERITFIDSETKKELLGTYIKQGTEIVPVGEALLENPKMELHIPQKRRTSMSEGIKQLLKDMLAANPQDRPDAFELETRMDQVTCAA
Chain of Dual specificity mitogen-activated protein kinase kinase 2 (Homo sapiens) (P36507 whole entry): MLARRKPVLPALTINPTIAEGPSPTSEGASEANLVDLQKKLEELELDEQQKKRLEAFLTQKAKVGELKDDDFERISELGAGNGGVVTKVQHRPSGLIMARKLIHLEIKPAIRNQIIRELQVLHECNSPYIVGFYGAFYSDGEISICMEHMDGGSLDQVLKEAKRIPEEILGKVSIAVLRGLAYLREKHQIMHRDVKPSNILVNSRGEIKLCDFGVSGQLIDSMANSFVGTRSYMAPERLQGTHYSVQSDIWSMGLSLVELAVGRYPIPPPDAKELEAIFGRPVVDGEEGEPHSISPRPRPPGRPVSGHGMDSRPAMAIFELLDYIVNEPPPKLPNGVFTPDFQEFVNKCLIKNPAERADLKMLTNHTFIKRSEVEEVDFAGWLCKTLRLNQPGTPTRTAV

For `C=CC(=O)Nc1cccc(C(=O)Nc2ccc(Nc3cc(-c4[nH]c(SC)nc4C)ccn3)cc2)c1`, the % of control in test [1] (at 1 µM) turned out to be 92%; in [1] (at 5 µM), 104%.

With `Cc1cc([C@@H](C)Nc2ccccc2C(=O)O)c2nc(N3CCOCC3)cc(=O)n2c1` [AZD-6482], the % of control in test [2] amounted to 99%.

For `CCC(=O)N1CCN(c2ccc(-n3c(=O)ccc4cnc5ccc(-c6cnc7ccccc7c6)cc5c43)cc2C(F)(F)F)CC1`, the % of control in test [3] was 100%.

In the case of `O=C(NOC[C@H](O)CO)c1ccc(F)c(F)c1Nc1ccc(I)cc1F`, the % of control in [4] came to 77%; in test [5], 79%; in [6], 86%; in [7], 84%; in [8], 66%; in test [9], 100%.

In turn, `CNC(=O)Nc1ccc(-c2nc(N3CC4CCC(C3)O4)c3cnn(C4CCC5(CC4)OCCO5)c3n2)cc1` came in with a % of control in test [10] of 95%.

For `CC[C@@H]1[C@H](F)C(=O)N[C@@H]1COc1nccc2cc(C(N)=O)c(OC)cc12` [ZIMLOVISERTIB], the % of inhibition is 6.6% in test [11] (at 0.01 µM); 1.4% in test [11] (at 0.04 µM); 11.2% in test [11] (at 0.2 µM); 7.8% in test [11] (at 1 µM); -3.7% in [11] (at 5 µM); 15.8% in test [12]. For the same compound, in test [13], the % of inhibition was 13.2%.

With `N#Cc1cccc(-c2c[nH]c3ncnc(N4CCOCC4)c23)c1`, the % of control is 93% in [14] and 78% in [15].
